Measurements taken from patent US9376470B2, “Polypeptide having angiogenesis-inducing activity and antibacterial activity, and use thereof for medical purposes” (FunPep Inc., priority 2008, dated 2016).
Values after ≈ are worked out from the molar mass of the structure shown. Peptide text beside a SMILES is read from it.

Tests used:
[1] = tested on: human vascular endothelial cells and fibroblast cells (co-culture, Angiogenesis Kit KZ-1000); details: 10 μg/mL, length of lumina
Protocol: Using AG30-5C as a positive control, the angiogenesis-inducing activity of SR-1 and SR-2 was measured. […] As a negative control, polypeptide-free group (Control) was used.
Cells were cultured at 37° C. under 5% CO2 in a 24-well plate using the special media to which the polypeptide was added. The medium was replaced with a medium containing the same polypeptide on day 4, day 7 and day 9 of culture. On day 11 from the beginning of the culture, the medium was removed and staining was performed using a kit for staining lumina (for CD31 antibody staining) according to the following procedure.
The primary antibody (mouse anti-human CD31 antibody) was 4000-fold diluted with a blocking solution (Dulbecco's phosphate buffered saline (PBS(−)) containing 1% BSA). To each well, 0.5 mL of this primary antibody solution was added, and the plate was incubated for 60 minutes at 37° C. After the completion of the incubation, each well was washed totally 3 times with 1 mL of the blocking solution.
Then, 0.5 mL of a secondary antibody solution (goat anti-mouse IgG/alkaline phosphatase conjugate) 500-fold diluted with the blocking solution was added to each well. The plate was incubated for 60 minutes at 37° C., and thereafter each well was washed 3 times with 1 mL of distilled water. During that period, 2 tablets of BCIP/NBT were dissolved into distilled water, and the obtained solution was filtered through a filter having a pore size of 0.2 μm to prepare a substrate solution. To each well, 0.5 mL of the prepared BCIP/NBT substrate solution was added, and the plate was incubated at 37° C. until the lumina turned to deep purple (typically for 5-10 minutes). After the completion of the incubation, each well was washed 3 times with 1 mL of distilled water. After washing, the washing solution was removed by aspiration, and the plate was left to stand and dry naturally. After drying, photographs of each well were taken under a microscope.
Each of the obtained images was quantified using an angiogenesis quantification software. Computer analysis was carried out on various parameters.

[2] = tested on: Crl:CD (SD) rats, cut wound; test: Effect to heal cut wounds, rat cut-wound model; assay type: in vivo; details: for scars of cut wounds / cicatrization by visual observation, compared with the bFGF formulation: rat cut-wound model, data not shown; for wound closing tension: 10, 100 and 1000 μg/mL, 50 μL dropwise once a day, measured on day 6
Protocol: Next, using rat cut-wound model, the effect of the five polypeptides SR-1 to 5 to heal cut wounds in vivo was evaluated. As described in Tetsuaki Yamaura et al. (Oyo Yakuri (Pharmacometrics) 22, 565-579 (1981)), the rat cut-wound model was produced and the wound closing tension was measured. That is, a cut wound of 30 to 36 mm was made on the back of Crl:CD (SD) rats (male, 7-week old, obtained from Charles River Laboratories Japan, Inc.) using a safety razor, and sutured at 3 points equally spaced. The day when this surgical treatment was applied was regarded as […] (day 0). […] Additions of 50 μL physiological saline were regarded as negative controls (Saline). […] The sutures were removed day 3, and the wound closing tension was measured on day 6.

[3] = tested on: Staphylococcus aureus ATCC29213; test: microbe, parasite or virus in culture; assay type: cell-based; details: 37° C., 20 hours
Protocol: (§1) ATP (%) of the antibacterial activity was measured in the same manner as mentioned above, and the “minimum inhibitory concentration (MIC)” was measured as follows. MIC is the lowest concentration of an agent that may inhibit the growth of a bacterium. MIC is used as a parameter for the efficacy of an antibacterial agent, for the strength of bacterial sensitivity, or the like. The bacteria can grow (proliferate) when the concentration is not higher than MIC, and cannot grow when the concentration is higher than MIC. […] (CLSI), but, in this Example, its measurement was carried out by a broth microdilution method in accordance with “M100-S17/M7-A7” (Performance Standards for Antimicrobial Susceptibility Testing; Seventeenth Informational Supplement, Vol. 27 No. 1) published by CLSI on January, 2007. That is, sensitivity test of agents was carried out using a microtiter plate or test tubes. The bacteria were cultured in the liquid media for 4 to 6 hours, and thereafter absorbances at A600 were measured. Bacterial suspensions were diluted with Mueller-Hinton broth (MHB) according to McFarland #0.5. Each strain was added so as to attain about 10^5 CFU/ml (final concentration). Each peptide was prepared to an optional concentration, and the solutions were serially diluted from the concentration. The polypeptide at each concentration stage was added to a microplate or test tubes, and the bacterial suspension was added thereto. […] The plate was incubated at 37° C. for 20 hours, the lowest concentration where bacterial growth was inhibited was regarded as the minimum inhibitory concentration. With respect to each strain, Escherichia coli: ATCC 25922 (Escherichia coli ATCC 25922), Pseudomonas aeruginosa: ATCC 27853 (Pseudomonas aeruginosa ATCC 27853), Staphylococcus aureus: ATCC29213 (Staphylococcus aureus ATCC29213), Klebsiella pneumoniae: JCM 1662 (Klebsiella pneumoniae JCM 1662), enterobacteria (1): JCM 1232 (Enterobacter cloacae JCM 1232), enterobacteria (2): JCM 1235 (Enterobacter aerogenes JCM 1235), and Staphylococcus epidermidis: JCM 2414 (Staphylococcus epidermidis JCM 2414), were used. […] As the concentrations of the agents in ATP assay, the concentrations as described in the Tables were used.

[4] = tested on: Staphylococcus epidermidis JCM 2414; test: microbe, parasite or virus in culture; assay type: cell-based; details: 37° C., 20 hours; for MIC: Staphylococcus epidermidis, JCM2414
Protocol: as §1

[5] = tested on: Escherichia coli ATCC 25922; test: microbe, parasite or virus in culture; assay type: cell-based; details: ATCC25922, 37° C., 20 hours
Protocol: as §1

[6] = tested on: Pseudomonas aeruginosa ATCC 27853; test: microbe, parasite or virus in culture; assay type: cell-based; details: 37° C., 20 hours; for MIC: Pseudomonas aeruginosa, ATCC27853
Protocol: as §1

Crl:CD (SD) rats = test: Ability to form granulation tissue in paper disc model; assay type: in vivo, rat; details: 10 μg/disc (250 μg/mL×40 μl/disc), subcutaneous paper disc, eight days later
Description: Then, the ability to form granulation tissue of five polypeptides SR-1 to 5 in vivo was studied. […] The prepared paper discs were embedded subcutaneously into the back of Crl:CD (SD) rats (male, 9-week old, obtained from Charles River Laboratories Japan, Inc.). Eight days later, the paper discs were taken out, and the granulation tissues around the paper discs were collected to determine their wet weight.

Row | SMILES | scars of cut wounds / cicatrization by visual observation, compared with the bFGF formulation [2] | MIC [3] | MIC [4] | wound closing tension [2] | further results
1 | CC(C)C[C@H](NC(=O)[C@H](CCCCN)NC(=O)[C@H](CCCNC(=N)N)NC(=O)[C@H](CCCCN)NC(=O)[C@H](CC(C)C)NC(=O)[C@H](CCCNC(=N)N)NC(=O)[C@H](CCCCN)NC(=O)[C@H](CCCNC(=N)N)NC(=O)[C@H](CC(C)C)NC(=O)[C@H](CCCNC(=N)N)NC(=O)[C@H](CCCNC(=N)N)NC(=O)[C@H](CCCCN)NC(=O)[C@H](CC(C)C)NC(=O)[C@H](CCCNC(=N)N)NC(=O)[C@H](Cc1c[nH]cn1)NC(=O)[C@H](CC(C)C)NC(=O)[C@H](Cc1ccccc1)NC(=O)[C@H](CCCNC(=N)N)NC(=O)[C@H](CC(C)C)NC(=O)[C@@H](N)CCC(=O)O)C(=O)N[C@@H](CCCNC(=N)N)C(N)=O [SR-2] (H-ELRFLHRLKRRLRKRLKRKLR-NH2; N-terminus assumed) | cicatrization was hardly observed |  |  |  | angiogenesis-inducing activity compared with AG30-5C [1]: higher than AG30-5C
2 | Cc1onc(-c2ccccc2)c1C(=O)N[C@@H]1C(=O)N2[C@@H]1SC(C)(C)[C@@H]2C(=O)O [OX, oxacillin, reference compound] |  | 0.12 to 0.5 mg/L (≈ 0.299 to 1.25 µM) | 0.12 to 0.5 mg/L (≈ 0.299 to 1.25 µM) |  | 
3 | C[C@@H](O)[C@H]1C(=O)N2C(C(=O)O)=C(S[C@@H]3CN[C@H](C(=O)N(C)C)C3)[C@H](C)[C@H]12 [MEPM, meropenem, reference compound] |  | 0.03 to 0.12 mg/L (≈ 0.0782 to 0.313 µM) | 0.125 mg/L (≈ 0.326 µM) |  | MIC [5]: 0.008 to 0.06 mg/L (≈ 0.0209 to 0.156 µM); MIC [6]: 0.25 to 1 mg/L (≈ 0.652 to 2.61 µM)
4 | CSCC[C@H](NC(=O)[C@H](CCCNC(=N)N)NC(=O)[C@@H](N)CCCCN)C(=O)N[C@@H](CCCNC(=N)N)C(=O)N[C@@H](CCCCN)C(=O)N[C@@H](CCCNC(=N)N)C(=O)N[C@@H](CC(C)C)C(=O)N[C@@H](CCCCN)C(=O)N[C@@H](CCCNC(=N)N)C(=O)N[C@@H](CCCCN)C(=O)N[C@@H](CC(C)C)C(=O)N[C@@H](CCCNC(=N)N)C(=O)N[C@@H](CC(C)C)C(=O)N[C@@H](Cc1c[nH]c2ccccc12)C(=O)N[C@@H](Cc1c[nH]cn1)C(=O)N[C@@H](CCCNC(=N)N)C(=O)N[C@@H](CCCCN)C(=O)N[C@@H](CCCNC(=N)N)C(=O)N[C@@H](Cc1ccc(O)cc1)C(=O)N[C@@H](CCCCN)C(=O)O [SR-5] (H-KRMRKRLKRKLRLWHRKRYK-OH; N-terminus assumed) |  |  |  | effect of increasing the wound closing tension | MIC Pseudomonas aeruginosa [6]: 128≦ μg/mL
5 | NC[C@H]1O[C@H](O[C@H]2[C@H](O)[C@@H](O[C@H]3O[C@H](CO)[C@@H](O)[C@H](N)[C@H]3O)[C@H](N)C[C@@H]2N)[C@H](N)C[C@@H]1O [TOB, tobramycin, reference compound] |  | 0.12 to 1 mg/L (≈ 0.257 to 2.14 µM) | 1 mg/L (≈ 2.14 µM) |  | MIC [5]: 0.25 to 1 mg/L (≈ 0.535 to 2.14 µM); MIC [6]: 0.25 to 1 mg/L (≈ 0.535 to 2.14 µM)
6 | CSCC[C@H](NC(=O)[C@H](CCCNC(=N)N)NC(=O)[C@H](CCCCN)NC(=O)[C@H](CC(C)C)NC(=O)[C@H](CCCNC(=N)N)NC(=O)[C@H](Cc1c[nH]cn1)NC(=O)[C@H](CC(C)C)NC(=O)[C@H](Cc1ccccc1)NC(=O)[C@H](CCCNC(=N)N)NC(=O)[C@H](CC(C)C)NC(=O)[C@@H](N)CCC(=O)O)C(=O)N[C@@H](CCCNC(=N)N)C(=O)N[C@@H](CCCCN)C(=O)N[C@@H](CCCNC(=N)N)C(=O)N[C@@H](CC(C)C)C(=O)N[C@@H](CCCCN)C(=O)N[C@@H](CCCNC(=N)N)C(=O)N[C@@H](CCCCN)C(=O)N[C@@H](CC(C)C)C(=O)N[C@@H](CCCNC(=N)N)C(N)=O [SR-3] (H-ELRFLHRLKRMRKRLKRKLR-NH2; N-terminus assumed) | cicatrization was hardly observed |  |  | effect of increasing the wound closing tension | granulation tissue weight (Crl:CD (SD) rats): largest increase in the granulation tissue weight
7 | CC[C@H](C)[C@H](NC(=O)[C@H](CC(C)C)NC(=O)[C@@H](N)CCCCN)C(=O)N[C@@H](Cc1ccccc1)C(=O)N[C@@H](CC(C)C)C(=O)N[C@@H](Cc1c[nH]cn1)C(=O)N[C@@H](CCCNC(=N)N)C(=O)N[C@@H](CC(C)C)C(=O)N[C@@H](CCCCN)C(=O)N[C@@H](CCCNC(=N)N)C(=O)N[C@@H](CCSC)C(=O)N[C@@H](CCCNC(=N)N)C(=O)N[C@@H](CCCCN)C(=O)N[C@@H](CCCNC(=N)N)C(=O)N[C@@H](CC(C)C)C(=O)N[C@@H](CCCCN)C(=O)N[C@@H](CCCNC(=N)N)C(=O)N[C@@H](CCCCN)C(=O)N[C@@H](CC(C)C)C(=O)N[C@@H](CCCNC(=N)N)C(N)=O [SR-4] (H-KLIFLHRLKRMRKRLKRKLR-NH2; N-terminus assumed) | cicatrization was hardly observed |  |  | effect of increasing the wound closing tension | 
8 | CC[C@H](C)[C@H](NC(=O)[C@H](CC(C)C)NC(=O)[C@H](CCCCN)NC(=O)[C@H](CC(C)C)NC(=O)[C@@H](N)CCSC)C(=O)N[C@@H](Cc1ccccc1)C(=O)N[C@@H](CC(C)C)C(=O)N[C@@H](Cc1c[nH]cn1)C(=O)N[C@@H](CCCNC(=N)N)C(=O)N[C@@H](CC(C)C)C(=O)N[C@@H](CCCCN)C(=O)N[C@@H](CCCNC(=N)N)C(=O)N[C@@H](CCSC)C(=O)N[C@@H](CCCNC(=N)N)C(=O)N[C@@H](CCCCN)C(=O)N[C@@H](CCCNC(=N)N)C(=O)N[C@@H](CC(C)C)C(=O)N[C@@H](CCCCN)C(=O)N[C@@H](CCCNC(=N)N)C(=O)N[C@@H](CCCCN)C(=O)O [SR-1] (H-MLKLIFLHRLKRMRKRLKRK-OH; N-terminus assumed) | cicatrization was hardly observed |  |  | effect of increasing the wound closing tension | angiogenesis-inducing activity compared with AG30-5C [1]: higher than AG30-5C; MIC Staphylococcus epidermidis [4]: 128< μg/mL; granulation tissue weight (Crl:CD (SD) rats): largest increase in the granulation tissue weight
